Experimental data as given in ChEMBL document CHEMBL2375247, “Synthesis and evaluation of 3-(benzylthio)-5-(1H-indol-3-yl)-1,2,4-triazol-4-amines as Bcl-2 inhibitory anticancer agents” (Bioorg Med Chem Lett, 2013).

Assays:
HeLa = experiment: Cytotoxicity against human HeLa cells after 72 hrs by MTT assay; format: functional, cell-based
MDA-MB-231 = experiment: Cytotoxicity against human MDA-MB-231 cells after 72 hrs by MTT assay; format: functional, cell-based; conditions: MDA-MB-231, 72 h
[1] = Cytotoxicity against human KG1a cells after 24 hrs by CellTitre-Blue assay; format: functional, cell-based; conditions: KG-1a
Jurkat = experiment: Cytotoxicity against human Jurkat cells after 24 hrs by CellTitre-Blue assay; format: functional, cell-based
[2] = target: Apoptosis regulator Bcl-2 (Homo sapiens, UniProt P10415); experiment: Competitive binding affinity to his-tagged Bcl-2 (unknown origin) after 1 hr by ELISA in presence of Bim peptide
Apoptosis regulator Bcl-2, sequence (P10415 whole entry): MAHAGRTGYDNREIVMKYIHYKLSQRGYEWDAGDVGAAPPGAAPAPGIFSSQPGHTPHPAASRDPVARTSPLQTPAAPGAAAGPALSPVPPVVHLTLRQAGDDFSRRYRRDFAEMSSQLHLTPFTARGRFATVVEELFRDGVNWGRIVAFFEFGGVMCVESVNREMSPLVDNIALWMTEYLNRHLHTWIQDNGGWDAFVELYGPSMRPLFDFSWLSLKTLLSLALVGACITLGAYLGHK

Row | Structure (SMILES) | IC50 (HeLa) [µM] | IC50 (MDA-MB-231) [µM] | IC50 [1] [µM] | IC50 (Jurkat) [µM] | IC50 [2] [µM]
1 | COc1ccc(CSc2nnc(-c3c[nH]c4ccccc34)n2N)cc1 | 0.75 | 1.7 | > 100 | > 100 | –
2 | Cc1ccc(CSc2nnc(-c3c[nH]c4ccccc34)n2N)cc1 | 5.38 | 10.5 | > 100 | > 100 | –
3 | Nn1c(SCc2ccccc2)nnc1-c1c[nH]c2ccccc12 | 2.3 | 26.5 | 17.2 | > 100 | –
4 | Nn1c(SCc2ccccc2[N+](=O)[O-])nnc1-c1c[nH]c2ccccc12 | 2.52 | 9.52 | 20.8 | > 100 | –
5 | Nn1c(SCc2cccc([N+](=O)[O-])c2)nnc1-c1c[nH]c2ccccc12 | 0.4 | 0.31 | 0.65 | > 100 | 1.43
6 | Nn1c(SCc2ccc([N+](=O)[O-])cc2)nnc1-c1c[nH]c2ccccc12 | 0.25 | 0.74 | 6.9 | > 100 | –
7 | Nn1c(SCc2ccc(F)cc2)nnc1-c1c[nH]c2ccccc12 | 0.29 | 1.35 | 13.2 | > 100 | –
8 | Nn1c(SCc2ccc(Br)cc2)nnc1-c1c[nH]c2ccccc12 | 8 | 71.4 | 55.8 | > 100 | –
9 | COc1cccc(CSc2nnc(-c3c[nH]c4ccccc34)n2N)c1 | 1.73 | 15.6 | 12.9 | > 100 | –
